Test system: Hedgehog pathway activity
Experiment: Shh-Light luciferase reporter assay of Hedgehog pathway activity (Shh-Light2 cells, SAG-stimulated)
Assay type: cell-based
Conditions: for activity at 2 µM: 2 μM compound, read-out: SHH-light % residual @ 2 μM; for activity at 2 µM / activity at 20 µM: SAG 500 nM; for activity at 20 µM: 20 μM compound, read-out: SHH-light % residual @ 20 μM
Protocol: To examine the inhibition of dynein 2 in cell-based assays, an established luciferase reporter-based cellular assay of Hedgehog pathway activity was employed [Taipale et al., Nature. 2000; 406(6799): 1005-9]. Signaling in this pathway depends on the function of dynein 2. In this setting, expression of luciferase driven by Hedgehog pathway activity was inhibited by compound 5 with an IC50 value of 0.9±0.5 μM. […] The potencies of these compounds in this cell-based assay match the rank-order of dynein 2 inhibition in vitro. In these assays, Hedgehog pathway activity was stimulated using the Synthetic Agonist of Smoothened (SAG). This compound competes with many Hedgehog pathway inhibitors for binding to Smoothened, a key node in the signaling pathway.
SHH-Light Assay (Steinman et al. eLife 2017; 6:e25174.)
NIH-3T3 cells stably expressing a luciferase reporter downstream of a Gli binding site (Shh-Light2 cells, RRID: CVCL_2721) were maintained in DMEM with 10% bovine calf serum (BCS). Cells were seeded at a density of 30,000 cells/well in 96-well tissue culture-treated plates (Corning, cat #353072) in 100 μL in DMEM+10% BCS, and incubated for 48 hr (Taipale et al., 2000). Wells were washed briefly with PBS. Next […] of low serum media (DMEM+0.5% BCS) containing smoothened agonist (SAG, 500 nM), and either solvent control (0.2% DMSO) or test compound (serial three-fold dilutions of each inhibitor starting from 20 μM) were added to the wells. After 28-32 hr of inhibitor treatment, cells were washed with 50 μL PBS and lysed for >30 min in 30 μL Passive Lysis Buffer (Promega Dual Luciferase kit, cat E1910). 5 uL of each lysate was transferred to white, solid-bottom 96-well plates (Greiner, cat #655075), followed by rapid addition (within 30 s) of 30 μL of Luciferase Assay Reagent using a multichannel pipette. Luminescence for each condition was read using a Synergy Neo plate reader (5 s integration time per well). Cell line identity was confirmed by measurement of the degree of response to Hedgehog pathway stimulation by the synthetic agonist SAG and using previously published values from our groups and others as references (Firestone et al., 2012; Hyman et al., 2009).

| IC50 (Table 2, SAG 500 nM, 28-32 hr treatment, read-out: Shh-light IC50) | SMILES | activity at 2 µM | activity at 20 µM |
| --- | --- | --- | --- |
| – | N#Cc1c(COc2ccc(Cl)cc2)nn2c(=O)c3ccccc3[nH]c12 [Example 42, 2-[(4-Chlorophenoxy)methyl]-9-oxo-4H-pyrazolo[5,1-b]quinazoline-3-carbonitrile] | 105% | 4.5% |
| – | NC(=O)c1c(CCC(Cl)(Cl)Cl)nn2c(=O)c3ccccc3[nH]c12 [Example 43, 9-Oxo-2-(3,3,3-trichloropropyl)-4,9-dihydropyrazolo[5,1-b]quinazoline-3-carboxamide] | 65% | 15.4% |
| – | N#Cc1c(CCC(Cl)(Cl)Cl)nn2c(=O)c3ccccc3[nH]c12 [Example 44, 9-Oxo-2-(3,3,3-trichloropropyl)-4H-pyrazolo[5,1-b]quinazoline-3-carbonitrile] | 45.8% | 3.4% |
| – | NC(=O)c1c(CC2CCCCC2)nn2c(=O)c3ccccc3[nH]c12 [Example 45, 2-(Cyclohexylmethyl)-9-oxo-4H-pyrazolo[5,1-b]quinazoline-3-carboxamide] | 82.4% | 4% |
| – | N#Cc1c(CC2CCCCC2)nn2c(=O)c3ccccc3[nH]c12 [Example 46, 2-(Cyclohexylmethyl)-9-oxo-4H-pyrazolo[5,1-b]quinazoline-3-carbonitrile] | 67.1% | 5% |
| – | NC(=O)c1c(CCOc2ccc(Cl)cc2)nn2c(=O)c3ccccc3[nH]c12 [Example 47, 2-[2-(4-Chlorophenoxy)ethyl]-9-oxo-4H-pyrazolo[5,1-b]quinazoline-3-carboxamide] | 54.7% | 11% |
| – | N#Cc1c(CCOc2ccc(Cl)cc2)nn2c(=O)c3ccccc3[nH]c12 [Example 48, 2-[2-(4-Chlorophenoxy)ethyl]-9-oxo-4H-pyrazolo[5,1-b]quinazoline-3-carbonitrile] | 75.5% | 10.9% |
| – | NC(=O)c1c(-c2ccc(Cl)cc2Cl)nn2c(=O)c3c(OCc4ccccc4)cccc3[nH]c12 [Example 49, 8-Benzyloxy-2-(2,4-dichlorophenyl)-9-oxo-4H-pyrazolo[5,1-b]quinazoline-3-carboxamide] | 78.3% | 10.8% |
| – | N#Cc1c(-c2ccc(Cl)cc2Cl)nn2c(=O)c3c(OCc4ccccc4)cccc3[nH]c12 [Example 50, 8-Benzyloxy-2-(2,4-dichlorophenyl)-9-oxo-4H-pyrazolo[5,1-b]quinazoline-3-carbonitrile] | 75.8% | – |
| – | NC(=O)c1c(C2CCC(F)(F)CC2)nn2c(=O)c3ccccc3[nH]c12 [Example 51, 2-(4,4-Difluorocyclohexyl)-9-oxo-4H-pyrazolo[5,1-b]quinazoline-3-carboxamide] | 92.4% | 103% |
| – | N#Cc1c(C2CCC(F)(F)CC2)nn2c(=O)c3ccccc3[nH]c12 [Example 52, 2-(4,4-Difluorocyclohexyl)-9-oxo-4H-pyrazolo[5,1-b]quinazoline-3-carbonitrile] | 110% | 76.9% |
| – | NC(=O)c1c(CC2CC2)nn2c(=O)c3ccccc3[nH]c12 [Example 53, 2-(Cyclopropylmethyl)-9-oxo-4H-pyrazolo[5,1-b]quinazoline-3-carboxamide] | 75.2% | 123% |
| – | N#Cc1c(CC2CC2)nn2c(=O)c3ccccc3[nH]c12 [Example 54, 2-(Cyclopropylmethyl)-9-oxo-4H-pyrazolo[5,1-b]quinazoline-3-carbonitrile] | 81.7% | – |
| – | NC(=O)c1c(-c2ccc(Cl)cc2Cl)nn2c(=O)c3cc(OCc4ccccc4)ccc3[nH]c12 [Example 55, 7-Benzyloxy-2-(2,4-dichlorophenyl)-9-oxo-4H-pyrazolo[5,1-b]quinazoline-3-carboxamide] | 62.8% | – |
| – | N#Cc1c(-c2ccc(Cl)cc2Cl)nn2c(=O)c3cc(OCc4ccccc4)ccc3[nH]c12 [Example 56, 7-Benzyloxy-2-(2,4-dichlorophenyl)-9-oxo-4H-pyrazolo[5,1-b]quinazoline-3-carbonitrile] | 49.6% | – |
| – | NC(=O)c1c(CCC(F)(F)F)nn2c(=O)c3ccccc3[nH]c12 [Example 57, 9-Oxo-2-(3,3,3-trifluoropropyl)-4H-pyrazolo[5,1-b]quinazoline-3-carboxamide] | 67.9% | – |
| – | N#Cc1c(CCC(F)(F)F)nn2c(=O)c3ccccc3[nH]c12 [Example 58, 9-Oxo-2-(3,3,3-trifluoropropyl)-4H-pyrazolo[5,1-b]quinazoline-3-carbonitrile] | 55.5% | 35.1% |
| – | N#Cc1c(C2(C(F)(F)F)CC2)nn2c(=O)c3ccccc3[nH]c12 [Example 59, 9-Oxo-2-[1-(trifluoromethyl)cyclopropyl]-4H-pyrazolo[5,1-b]quinazoline-3-carbonitrile] | 89.3% | 45.1% |
| – | NC(=O)c1c(CCCO)nn2c(=O)c3ccccc3[nH]c12 [Example 60, 2-(3-Hydroxypropyl)-9-oxo-4H-pyrazolo[5,1-b]quinazoline-3-carboxamide] | 78.1% | 99% |
| – | O=C(O)c1c(-c2ccc(Cl)cc2Cl)nn2c1[nH]c(=O)c1ccccc12 [Example 61, 2-(2,4-Dichlorophenyl)-5-oxo-4H-pyrazolo[1,5-a]quinazoline-3-carboxylic acid] | – | 66.7% |
| – | NC(=O)c1c(-c2ccc(Cl)cc2Cl)nn2c1[nH]c(=O)c1ccccc12 [Example 62, 2-(2,4-Dichlorophenyl)-5-oxo-4H-pyrazolo[1,5-a]quinazoline-3-carboxamide] | – | 42.1% |
| – | COc1ccc2c(c1)c(=O)[nH]c1c(C#N)c(C3(c4ccc(Cl)cc4)CC3)nn12 [Example 64, 2-[1-(4-Chlorophenyl)cyclopropyl]-7-methoxy-5-oxo-4H-pyrazolo[1,5-a]quinazoline-3-carbonitrile] | 91.6% | 90.4% |
| – | COc1ccc2c(c1)c(=O)[nH]c1c(C#N)c(-c3ccc(Cl)cc3Cl)nn12 [Example 65, 2-(2,4-Dichlorophenyl)-7-methoxy-5-oxo-4H-pyrazolo[1,5-a]quinazoline-3-carbonitrile] | 76.9% | -1% |
| 1.5 µM | N#Cc1ccc2c(c1)c(=O)[nH]c1c(C#N)c(C3(c4ccc(Cl)cc4)CC3)nn12 [Example 66, 2-[1-(4-Chlorophenyl)cyclopropyl]-5-oxo-4H-pyrazolo[1,5-a]quinazoline-3,7-dicarbonitrile] | 39.6% | -3.8% |
| – | COC(=O)c1c(-c2ccc(Cl)cc2Cl)nn2c(=O)c3ccccc3[nH]c12 [Example 67, Methyl 2-(2,4-dichlorophenyl)-9-oxo-4H-pyrazolo[5,1-b]quinazoline-3-carboxylate] | – | 80.3% |
| – | CC(C)OC(=O)c1c(-c2ccc(Cl)cc2Cl)nn2c(=O)c3ccccc3[nH]c12 [Example 68, Isopropyl 2-(2,4-dichlorophenyl)-9-oxo-4H-pyrazolo[5,1-b]quinazoline-3-carboxylate] | 90.5% | 110% |
| – | O=c1c2ccc(Cl)cc2[nH]c2cc(-c3ccc(Cl)cc3Cl)nn12 [Example 69, 6-Chloro-2-(2,4-dichlorophenyl)-4H-pyrazolo[5,1-b]quinazolin-9-one] | 75% | 65.4% |
| – | O=c1c2ccccc2[nH]c2cc(-c3ccc(Cl)cc3Cl)nn12 [Example 70, 2-(2,4-Dichlorophenyl)-4H-pyrazolo[5,1-b]quinazolin-9-one] | 109% | 113% |
